Laboratory results as given in ChEMBL document CHEMBL1151665, “Plant anticancer agents, XLI. Cardiac glycosides from Streblus asper” (1985).
Values after ≈ are worked out from the molar mass of the structure shown.

System: KB
Assay: Cytotoxicity against human KB cells
Conditions: read-out: ED50

Row | Structure (SMILES) | EC50 [µg/mL]
1 | CO[C@H]1[C@H](O[C@H]2CC[C@]3(C=O)[C@H]4CC[C@]5(C)[C@@H](C6=CC(=O)OC6)CC[C@]5(O)[C@@H]4CC[C@]3(O)C2)O[C@H](C)[C@@H](O)[C@@H]1OC [MANSONIN] | 0.042 (≈ 0.0726 µM)
2 | CO[C@H]1[C@H](O[C@H]2CC[C@]3(C=O)[C@H]4CC[C@]5(C)[C@@H](C6=CC(=O)OC6)CC[C@]5(O)[C@@H]4CC[C@]3(O)C2)O[C@H](C)[C@H](O)[C@@H]1OC [STREBLOSIDE] | 0.035 (≈ 0.0605 µM)
